Measurements taken from PubChem BioAssay AID1996.
Converted amounts (≈) assume the structure as drawn.

Conditions: buffer; pH 7.4; 200.0 µM

SMILES | solubility kinetic [µg/mL]
O=Cc1cccn1-c1ncc(Br)cn1 | 30.6 (≈ 121 µM)
CC1(C)CC(=O)C(N=Nc2cccc([N+](=O)[O-])c2)=C(O)C1 | > 43.4
CN(C)c1ccc(CNS(=O)(=O)c2csc(C(N)=O)c2)cc1 | > 50.9
O=C(NCC1CCCCC1)c1ccc(Br)o1 | > 42.9
CCC(=O)OCC(=O)Nc1cc([N+](=O)[O-])ccc1OC | 40.9 (≈ 145 µM)
CCN1CCN(C(=O)/C=C/c2ccc(OC)cc2)CC1 | > 41.2
O=C(NCCc1ccccc1)C1CC(=O)N(C2CCCCC2)C1 (stereo unspecified) | > 47.2
Cc1sc2c3ccsc3ccc2[n+]1C.[I-] | 36.3
O=C(Cc1ncc(C(F)(F)F)cc1Cl)NCc1cccnc1 | > 49.5
Cc1cccn2c(=O)c(C(=O)NC3CCCCC3)c(O)nc12 | 5.4 (≈ 17.9 µM)
COc1ccc(NC2CC(=O)N(c3cccc([N+](=O)[O-])c3)C2=O)cc1 (stereo unspecified) | > 51.2
C/C(=N\OCc1ccccc1C#N)c1cc2ccccc2o1 | 1.1 (≈ 3.79 µM)
c1ccc(CCOn2ccnc2)cc1 | > 28.2
Cc1csc(=Nc2ccccc2)n1CCCN1CCCC1=O | > 47.3
O=C(Nc1ccsc1C(=O)O)c1ccccc1 | > 37.1
N#CCc1ccc(OC(=O)c2ccncc2)cc1 | > 35.7
CCC(OC(=O)CN1C(=O)c2ccccc2C1=O)C(=O)NC1CCCC1 (stereo unspecified) | 52.1 (≈ 145 µM)
CCCOc1ccc(S(=O)(=O)N2CCOCC2)cc1[N+](=O)[O-] | > 49.6
CCOc1ccc(N2C(=O)/C(=C/c3ccccn3)SC2=S)cc1 | < 0.4
Cc1ccc(S(=O)(=O)N2CCCCC2c2cccnc2)c(C)c1C (stereo unspecified) | 45.9 (≈ 133 µM)
Cc1ccc(C(=O)N2CCc3ccccc32)cc1[N+](=O)[O-] | < 0.3
COc1ccc(OC)c(NC(=O)c2nc3ccccc3s2)c1 | < 0.3

SMILES | solubility kinetic [µg/mL]
NCCCNc1nc(N)c([N+](=O)[O-])c(NC2CCCCC2)n1 | > 46.4
CN(C)CCCn1c(N)c(C#N)c2nc3ccccc3nc21 | > 44.2
CCCCc1ccc(NC2=NCCCS2)cc1 | 26.4 (≈ 106 µM)
O=C(COc1ccccc1)NS(=O)(=O)c1ccc(Cl)cc1 | > 48.9
CCn1c(=O)c(C(=O)Nc2ncccc2O)c(O)c2ccccc21 | 0.9 (≈ 2.77 µM)
O=C(CC(c1ccccc1)c1cc(Cl)ccc1O)NCCCN1CCOCC1 (stereo unspecified) | 59.2 (≈ 147 µM)
Cc1ccc(C(=O)NCc2ccc3c(c2)OCO3)cc1Cl | < 0.7
O=C(O)c1ccc(Nc2nc(-c3cccnc3)cs2)cc1 | > 44.6
CCOC(=O)CC(c1ccc([N+](=O)[O-])cc1)n1c(C)ccc1C (stereo unspecified) | 32.9 (≈ 104 µM)
CC#CC[N+](C)(C)CCCCCC.[Cl-] | 27.8
COc1ccc(N(CC(=O)N2CCCC2)S(C)(=O)=O)cc1 | 34.5 (≈ 110 µM)
C/C(=N\NC(=O)c1ccn(C)n1)c1ccco1 | > 34.8
Cc1ccc(Cn2c(N3CCN(C)CC3)nc3c2c(=O)[nH]c(=O)n3C)cc1 | > 55.3
CCOc1cccc(C(=O)Nc2cc(C)ccc2NC(=O)c2ccco2)c1 | 22 (≈ 60.4 µM)
CN=C(Nc1cccnc1)c1cccc(C(F)(F)F)c1 | > 41.9
O=C(CNc1cccc(S(=O)(=O)N2CCCC2)c1)Nc1cccc(C(F)(F)F)c1 | 21.1 (≈ 49.4 µM)
O=C(Nc1ccccc1)c1c(O)c2c(n(Cc3ccco3)c1=O)CCCC2 | < 0.4
CC1(C)C2CC=C(/C=N/NC(=O)C(N)=O)C1C2 (stereo unspecified) | > 35.3
Cc1ccc(C(C)NC(=O)c2ccncc2)cc1C (stereo unspecified) | > 38.1
CC1CC(C)CN(S(=O)(=O)c2ccc(Cl)cc2)C1 (stereo unspecified) | 9.3 (≈ 32.3 µM)
Cc1cc2oc(=O)cc(CN3CCCCC3C)c2cc1C (stereo unspecified) | 17.9 (≈ 62.7 µM)
CCN(Cc1ccccc1)Cc1ccc(OCc2ccccc2)c(OC)c1 | 10.3 (≈ 28.5 µM)

SMILES | solubility kinetic [µg/mL]
Cn1c(CNC(=O)C2CCCCC2)cc2ccccc21 | 1.7 (≈ 6.29 µM)
NC(=O)C1CCN(CCS(=O)(=O)c2ccc(Cl)cc2)CC1 | > 49.6
O=C(CCN1C(=O)COc2ccccc21)N1CCN(c2ccccc2)CC1 | 47 (≈ 129 µM)
Cc1cc(Cl)ccc1NC(=O)CN1C(=O)NC2(CCCC2)C1=O | > 50.4
CC(=O)c1ccc(NC(=O)NC2CCCc3ccccc32)cc1 (stereo unspecified) | 4.9 (≈ 15.9 µM)
O=C(O)c1cccc(N2C(=O)c3cccc4cccc(c34)C2=O)c1 | > 47.6
O=C(CCCCC(=O)N1CCOCCOCCOCC1)OCc1ccccc1 | 56.1 (≈ 143 µM)
Cc1ccc(C2CCN(C(=O)Nc3ccc(F)cc3)C2)cc1 (stereo unspecified) | 1.7 (≈ 5.7 µM)
Cc1nnc(SCC(=O)Nc2ccc(F)cc2)n(N)c1=O | > 46.4
CN(C)c1ccc(C(=O)/C=C/c2cccnc2)cc1 | 6.7 (≈ 26.6 µM)
CCOc1ccc(Cl)cc1/C=C1/C(=O)ON=C1C | 29.3 (≈ 110 µM)
CCCC(=NC(C)CC)C1=C(O)CC(c2ccccc2)CC1=O (stereo unspecified) | 39 (≈ 124 µM)
Cc1csc(SCC(=O)NCc2cccc(Cl)c2)n1 | > 46.9
COCCNc1oc(Cc2cccc3ccccc23)nc1C#N | 43.3 (≈ 141 µM)
Clc1cccc(Sc2ccc(-c3ccccn3)s2)c1 | < 0.7
CC(=O)c1csc(COc2ccc(Cl)cc2)n1 | 3 (≈ 11.2 µM)
Cc1ccc(N2C(=O)c3ccccc3C(C)(C)C2=O)cc1 | 12.8 (≈ 45.8 µM)
Cc1ccc(OCC(=O)OCC(=O)NC2CCCC2)cc1C | 20 (≈ 65.5 µM)
Cc1ccc(S(=O)(=O)N2CCOCC2)cc1NC(=O)COC(=O)c1cncc(Br)c1 | > 74.8
COc1ccc([C@@H](O)[C@@H](N)c2ccccc2)cc1.Cl | 41.7
Cn1ccnc1C(O)(c1ccccc1)c1ccccc1 | 35.4 (≈ 134 µM)
Fc1ccc(NC(=S)N2CCc3ccccc3C2)c(F)c1 | 37.3 (≈ 123 µM)

SMILES | solubility kinetic [µg/mL]
CC/C(O)=C1\C(=O)CCCC1=NCCc1c(C)[nH]c2ccc(C)cc12 | 3.3 (≈ 9.75 µM)
COc1cc(C(=O)Nc2cccc(C(C)=O)c2)cc(OC)c1OC | > 49.4
CCOc1ccccc1OCC(=O)Nc1nc2ccccc2[nH]1 | 4.1 (≈ 13.2 µM)
O=C(Nc1nnc(CCN2CCCCC2)s1)c1ccccc1Cl | > 52.6
O=C(CSc1ccc(F)cc1)NCCc1ccc(Cl)cc1 | 8.6 (≈ 26.6 µM)
Cc1nc(N2CCNCC2)c2c3c(sc2n1)CCCC3 | 26.7 (≈ 92.6 µM)
CN(Cc1ccccc1)C(=O)c1cc(=O)[nH]c2ccccc12 | > 43.9
O=c1[nH]c2ccccc2nc1-c1ccc(Cl)cc1 | < 0.3
O=C(O)c1cccc(S(=O)(=O)N2CCN(c3ccccn3)CC2)c1 | > 52.1
O=C(/C=C/c1ccco1)NCc1ccc2c(c1)OCO2 | > 40.7
C=CCn1c(-c2ccccc2)nc(=S)c2c1CCCC2 | > 42.4
CC(=O)Nc1ccc2nc(NC(=O)CN3CCOCC3)sc2c1 | > 50.2
COC(=O)c1ccc(NC(=O)[C@H](C)NC(N)=O)cc1 | > 39.8
CCOc1ccc(NS(=O)(=O)c2ccc3[nH]c(=O)[nH]c3c2)cc1 | 2 (≈ 6 µM)
O=C(Nc1ncccn1)c1ccc([N+](=O)[O-])cc1 | 36.5 (≈ 149 µM)
CCCCNC(=O)CSc1nc(O)cc(=O)n1C1CCCC1 | > 48.8
COc1ccc(S(=O)(=O)NCCc2ccccn2)cc1 | > 43.9
CCOCCCNC(=O)c1c[nH]c2ccc(OCC)cc2c1=O | 31.4 (≈ 98.6 µM)
CCC1CCCCN1C(=O)NC(=O)c1ccccc1 (stereo unspecified) | > 39.1
O=C(Cc1ccccc1[N+](=O)[O-])OCN1C(=O)c2ccccc2C1=O | 13.7 (≈ 40.3 µM)
